What all share (format): in vivo
The test system of data set [1] is Mythimna separata. As to the kind of experiment: Insecticidal activity against Mythimna separata, Airbrush spray on maize leaf pieces. The following applies: 72 h, 0.05 mg/L, 3 days after the administration, 3rd-instar larvae, read-out: mortality rate against Mythimna separata. As for the experimental part: (§1) After the compound to be determined was dissolved in a mixed solvent of acetone/methanol (1:1), it was diluted with water containing 0.1% (wt) Tween-80 to a desired concentration.
(§2) Mythimna separata, Diamondback moth, Chilo suppressalis, Spodoptera exigua, Myzus persicae, and Franklinella occidentalis were used as targets, and the activity was tested by an Airbrush spray method.
Determination method: maize leaves were cut into 2 cm leaf pieces, and the front and back of each leaf piece were sprayed under an Airbrush spray treatment pressure of 10 psi (approximate to 0.7 kg/cm^2) and with a spray volume of 0.5 mL. After drying in the shade, 10 3rd-instar larvae were inoculated for each treatment, and each treatment was repeated for 3 times. After the treatment, the leaf pieces were put into an observation chamber at 25° C. and with a relative humidity of 60% to 70%, and the number of living larvae was investigated 3 days after the administration of the compounds, and the mortality rates were calculated.

For data set [2], the system named is Diamondback moth. As to the kind of experiment: Insecticidal activity against Diamondback moth, Airbrush spray on cabbage leaf discs. The following applies: Plutella xylostella, foliar, 72 h, 3 days after the administration; for mortality at 0.156 µg/mL: 0.156 mg/L, read-out: Mortality rate (%, 3 days after the administration) 0.156 mg/L; for mortality at 0.156 µg/mL / mortality at 0.313 µg/mL / mortality at 10 µg/mL: Diamondback moth; for mortality at 0.313 µg/mL: 0.313 mg/L, read-out: Mortality rate (%, 3 days after the administration) 0.313 mg/L; for mortality at 1.25 µg/mL: 1.25 mg/L, 3rd-instar larvae, read-out: mortality rate against Diamondback moth; for mortality at 10 µg/mL: 10 mg/L, read-out: Mortality rate (%, 3 days after the administration) 10 mg/L. The procedure:
as §1, §2
Determination method: cabbage leaves were formed into leaf discs having a diameter of 2 cm using a puncher, and the front and back of each leaf disc were sprayed under an Airbrush spray treatment pressure of 10 psi (approximate to 0.7 kg/cm^2) and with a spray volume of 0.5 mL. After drying in the shade, 10 3rd-instar larvae were inoculated for each treatment, and each treatment was repeated for 3 times. After the treatment, the leaf discs were placed into an observation chamber at 25° C. and with a relative humidity of 60% to 70%, and the number of living larvae was investigated 3 days after the administration of the compounds, and the mortality rates were calculated.

Data set [3] concerns Chilo suppressalis. Briefly: Insecticidal activity against Chilo suppressalis, sprayed rice stems. The settings on record: 72 h, 0.625 mg/L, 3 days after the administration, 3rd-instar larvae, read-out: mortality rate against Chilo suppressalis. The procedure:
as §1, §2
Determination method: 1) Preparation of rice seedlings: rice was cultured in a plastic small cup with a diameter of 4.5 cm and a height of 4 cm in a constant temperature room (the temperature was 26-28° C., the relative humidity was about 60-80%, and the illumination was 16hL:8hD), when the rice grown to a 4-5 leaf stage, robust and uniformly grown rice seedlings were selected for pharmaceutical treatment, and 3 replicates were set for each treatment. 2) Preparation of test insects: 3rd-instar larvae of Chilo suppressalis were continuously reared indoors. 3) Rice stems were sprayed and insects were introduced. A spray method was used to treat whole rice seedlings with uniform spray, and each treatment was 15 mL. Blank controls were treated firstly, and then the above operation was repeated in an order of experimental concentrations from low to high. After the spray treatment of the rice seedlings, they were placed in the shade to air-dry drug liquid, about 5 cm of the stem from a basal part of the stem was cut and fed to the test insects. A glass culture dish with a diameter of 90 mm was prepared, filter paper was placed on the bottom of the dish, then water was added to moisturize. About 5 rice stems were placed in each dish, 10 larvae were introduced, and the culture dish was closed with non-woven fabric and placed in the constant-temperature room for culture. 3 days after the administration, the number of residual live insects was investigated.

The test system of data set [4] is Spodoptera exigua. As to the kind of experiment: Insecticidal activity against Spodoptera exigua, leaf disc dipping feeding method. The following applies: foliar, 72 h, 0.625 mg/L, 3 days after the administration, read-out: mortality rate against Spodoptera exigua. As for the experimental part: After the compound to be determined was dissolved in a mixed solvent of acetone/methanol (1:1), it was diluted with water containing 0.1% (wt) Tween-80 to a desired concentration. […]
Determination method: the activity was tested by using a leaf disc dipping feeding method. Leaf discs were dipped in a drug solution for 10 s, and placed in a culture dish after being air-dried, there were 4 discs in each dish, and a filter paper was placed in the culture dish for moisture retention. 10 test insects of Spodoptera exigua were introduced to each dish, with 3 replicates.
They were placed in a light incubator for culture at a temperature of 25° C. and an illumination of 14hL:10hD. On the 1st, 2nd, and 3rd day after the administration, the number of dead Spodoptera exigua was investigated and the mortality rate was calculated.

For data set [5], the system named is Myzus persicae. Briefly: Insecticidal activity against Myzus persicae, Airbrush spray on cabbage leaves. The following applies: 50 mg/L, after 48 h, read-out: mortality rate against Myzus persicae. The procedure: as §1, §2
Determination method: a culture dish with a diameter of 6 cm was taken, the bottom of the dish was covered by a layer of filter paper, and an appropriate amount of tap water was added to moisturize the paper. Cabbage leaves with an appropriate size (the diameter was about 3 cm) and 15-30 aphids grown were cut from cabbage plants used to culture Myzus persicae, winged aphids and aphids on the front of the leave were removed, and it was placed in the culture dish while the back of the leave was upward. The pressure of airbrush spray treatment was 10 psi (about 0.7 kg/cm^2), the liquid spray volume was 0.5 mL, and there were 3 replicates for each treatment. After the treatment, the leave was put into an observation room for culture at 25° C. and a relative humidity of 60-70%. After 48 h, the number of live insects was investigated and the mortality rate was calculated.

The test system of data set [6] is Franklinella occidentalis. As to the kind of experiment: Insecticidal activity against Franklinella occidentalis nymphs, sprayed bean leaves. The procedure: as §1, §2
Determination method: fresh bean leaves cultivated in a greenhouse were selected, a hand-held Airbrush sprayer was used to spray uniformly, each treatment was 1 mL, and after being air-dried naturally, the leaves were placed in a finger-shaped tube. Neat and healthy Franklinella occidentalis nymphs were introduced, there were 15 nymphs for each treatment, 3 replicates were set for the experiment, and water treatment was set as a blank control. After the treatment, the leaves were put into an indoor culture room for culture at 24° C., a relative humidity of 60-70%, and natural light. After 72 h, the number of live insects was investigated and the mortality rate was calculated.

For data set [7], the system named is cat flea. As to the kind of experiment: Insecticidal experiment on cat flea, thin film in culture dish. The settings on record: Ctenocephalides felis, 72 h, read-out: mortality rate, cat flea. The procedure:
4 mg of the compound to be determined was dissolved in 40 mL of acetone to obtain an acetone solution with a concentration of 100 mg/L. 400 μL of the drug solution was applied on the bottom and sides of a culture dish with an inner diameter of 5.3 cm, then after acetone was evaporated, a thin film of the compound of the present invention was made on the inner wall of the culture dish. The inner wall of the culture dish used was 40 cm^2, and the treatment dosage was 1 μg/cm^2. 10 adult cat fleas (mixed male and female) were put into the dish, and it was stored in a constant-temperature room at 25° C. after being covered. The number of dead insects after 72 h was checked and the mortality rate was calculated. The experiment was repeated for 3 times.

For the compound `C=CCN(C(=O)c1ccc(F)cc1)c1cccc(C(=O)Nc2c(I)cc(C(F)(C(F)(F)F)C(F)(F)F)cc2C(F)(F)F)c1F` [Compound 8], in data set [1], the mortality at 0.05 µg/mL is > 90%. In addition, in data set [2], the mortality at 0.156 µg/mL was determined as 100%, the mortality at 0.313 µg/mL came to 100%, the mortality at 1.25 µg/mL is > 90% and the mortality at 10 µg/mL was found to be 100%. For the same compound, the mortality at 0.625 µg/mL in data set [3] is > 90%. In data set [4], the mortality at 0.625 µg/mL was > 90%. In addition, the mortality at 50 µg/mL in data set [5] was > 90%. Also, in data set [6], the “Mortality rate (%, 3 days after the administration) 10 mg/L” value amounted to 88.89% and the “Mortality rate (%, 3 days after the administration) 100 mg/L” value worked out at 100%. Besides, the mortality at 1 µg/cm2 in data set [7] was > 90%.

`C=CCN(C(=O)c1ccc(F)nc1)c1cccc(C(=O)Nc2c(I)cc(C(F)(C(F)(F)F)C(F)(F)F)cc2C(F)(F)F)c1F` [Compound 20]: the mortality at 0.05 µg/mL in data set [1] is > 90%. In addition, in data set [2], the mortality at 0.156 µg/mL was 100%, the mortality at 0.313 µg/mL came out at 100%, the mortality at 1.25 µg/mL is > 90% and the mortality at 10 µg/mL came out at 100%. For the same compound, the mortality at 0.625 µg/mL in data set [3] is > 90%. Moreover, the mortality at 0.625 µg/mL in data set [4] is > 90%. The mortality at 50 µg/mL in data set [5] was > 90%. In data set [6], the “Mortality rate (%, 3 days after the administration) 10 mg/L” value is listed as 100% and the “Mortality rate (%, 3 days after the administration) 100 mg/L” value is 100%. In addition, in data set [7], the mortality at 1 µg/cm2 is > 90%.

For the compound `C#CCN(C(=O)c1ccc(F)cc1)c1cccc(C(=O)Nc2c(I)cc(C(F)(C(F)(F)F)C(F)(F)F)cc2C(F)(F)F)c1F` [Compound 36], the mortality at 0.05 µg/mL in data set [1] is > 90%. In data set [2], the mortality at 0.156 µg/mL was determined as 100%, the mortality at 0.313 µg/mL stood at 100%, the mortality at 1.25 µg/mL is > 90% and the mortality at 10 µg/mL is 100%. The mortality at 0.625 µg/mL in data set [3] was > 90%. For the same compound, in data set [4], the mortality at 0.625 µg/mL is > 90%. For the same compound, the mortality at 50 µg/mL in data set [5] was > 90%. Besides, in data set [6], the “Mortality rate (%, 3 days after the administration) 10 mg/L” value is reported as 95.56% and the “Mortality rate (%, 3 days after the administration) 100 mg/L” value is listed as 100%. The mortality at 1 µg/cm2 in data set [7] is > 90%.

In the case of `C#CCN(C(=O)c1ccc(F)cc1)c1cccc(C(=O)Nc2c(Br)cc(C(F)(C(F)(F)F)C(F)(F)F)cc2C(F)(F)F)c1F` [Compound 35], the mortality at 0.05 µg/mL in data set [1] is > 90%. Further, in data set [2], the mortality at 0.156 µg/mL worked out at 100%, the mortality at 0.313 µg/mL was determined as 100%, the mortality at 1.25 µg/mL is > 90% and the mortality at 10 µg/mL amounted to 100%. Further, the mortality at 0.625 µg/mL in data set [3] is > 90%. Further, in data set [4], the mortality at 0.625 µg/mL is > 90%. Further, in data set [5], the mortality at 50 µg/mL was > 90%. In addition, in data set [6], the “Mortality rate (%, 3 days after the administration) 10 mg/L” value was 100% and the “Mortality rate (%, 3 days after the administration) 100 mg/L” value is given as 100%. Also, the mortality at 1 µg/cm2 in data set [7] was > 90%.

Regarding `C#CCN(C(=O)c1ccc(F)nc1)c1cccc(C(=O)Nc2c(I)cc(C(F)(C(F)(F)F)C(F)(F)F)cc2C(F)(F)F)c1F` [Compound 48], the mortality at 0.05 µg/mL in data set [1] was > 90%. Moreover, in data set [2], the mortality at 0.156 µg/mL turned out to be 100%, the mortality at 0.313 µg/mL amounted to 100%, the mortality at 1.25 µg/mL is > 90% and the mortality at 10 µg/mL amounted to 100%. Besides, the mortality at 0.625 µg/mL in data set [3] is > 90%. Also, the mortality at 0.625 µg/mL in data set [4] is > 90%. Also, the mortality at 50 µg/mL in data set [5] was > 90%. In data set [6], the “Mortality rate (%, 3 days after the administration) 10 mg/L” value was 100% and the “Mortality rate (%, 3 days after the administration) 100 mg/L” value was found to be 100%. Moreover, the mortality at 1 µg/cm2 in data set [7] was > 90%.

With `C#CCN(C(=O)c1ccc(F)nc1)c1cccc(C(=O)Nc2c(Br)cc(C(F)(C(F)(F)F)C(F)(F)F)cc2C(F)(F)F)c1F` [Compound 47], in data set [1], the mortality at 0.05 µg/mL is > 90%. Also, in data set [2], the mortality at 0.156 µg/mL stood at 100%, the mortality at 0.313 µg/mL is 100%, the mortality at 1.25 µg/mL is > 90% and the mortality at 10 µg/mL worked out at 100%. Besides, the mortality at 0.625 µg/mL in data set [3] was > 90%. The mortality at 0.625 µg/mL in data set [4] was > 90%. The mortality at 50 µg/mL in data set [5] is > 90%. Besides, in data set [6], the “Mortality rate (%, 3 days after the administration) 10 mg/L” value is 100% and the “Mortality rate (%, 3 days after the administration) 100 mg/L” value turned out to be 100%. The mortality at 1 µg/cm2 in data set [7] is > 90%.

The record behind these values is patent publication US20240199552A1, “AMIDE COMPOUND AND USE THEREOF” (Metisa Biotechnology Co., Ltd, priority 2021, published 2024).
